Reference: the CheMixHub ionic liquid set

Experiment: xn = mol fraction of the nth substance listed

CCCC[n+]1ccn(C)c1.[Br-] + CCOCCO
viscosity [mPa·s], 100 kPa
Conditions | x1 = 0.1002 | x1 = 0.2001 | x1 = 0.3007 | x1 = 0.3992 | x1 = 0.5001 | x1 = 0.5986 | x1 = 0.7001 | x1 = 0.8005 | x1 = 0.9002 | x1 = 1
298.15 K | 12.5 | 42.5 | 88.9 | 139 | 191 | 253 | 356 | 541 | 880 | 1451
303.15 K | 8.68 | 25.6 | 51.1 | 78.5 | 108 | 142 | 197 | 295 | 480 | 837
308.15 K | 6.44 | 17.4 | 32.8 | 50 | 67 | 87.1 | 117 | 171 | 278 | 506
313.15 K | 5.02 | 12.5 | 23 | 34.3 | 45.3 | 58.1 | 75.6 | 108 | 171 | 330

COS(=O)(=O)[O-].Cn1cc[n+](C)c1 + CCOCCO
viscosity [mPa·s], 101 kPa
Conditions | x1 = 0.0009004 | x1 = 0.002248 | x1 = 0.003592 | x1 = 0.004932 | x1 = 0.006269 | x1 = 0.007602
293.15 K | 2.1 | 2.12 | 2.14 | 2.16 | 2.18 | 2.21
303.15 K | 1.64 | 1.66 | 1.68 | 1.71 | 1.73 | 1.75
313.15 K | 1.27 | 1.29 | 1.32 | 1.34 | 1.37 | 1.39
